Laboratory results reported in patent publication US20230277449A1, “ORAL CAVITY POLYMERIC DELIVERY SYSTEMS” (YISSUM RESEARCH DEVELOPMENT COMPANY OF THE HEBREW …, priority 2020, published 2023).
“And” between values parts separate entries of the source, which are not always exact repeats. Equal entries are not always repeated. Where two headings read alike, the source gives them in different places.

Columns and labels:
[1] = pig, in vivo, iv, 1 mg/kg
Experimental: 2.1.7 In-vivo protocol of IV administration: Domestic female pigs (sus scrofa domesticus) of 35-40 kg were allowed to acclimate before the experiment. Pigs were fasted overnight before the experiments. On the morning of the experiment pigs were anesthetized by xylazine 1 mg/kg, midazolam 0.04 mg/kg, ketamine 5 mg/kg and propofol 4 mg/kg. Pigs were positioned on their back. Endotracheal tube was inserted, and pigs were respired with oxygen. […] Catheter was inserted into ear vein through which physiological saline was administered. Pigs received amoxicillin 15 mg/kg antibiotic and tolfenamic acid 2 mg/kg analgesic. An intra-jugular catheter was inserted for blood sampling. Pigs were constantly monitored for their respiration rate, rectal temperature, O2 saturation, heart rate and blood pressure. Cardiovascular parameters were obtained by blood pressure monitor with porcine adapted front leg cuff. […] Plasma was collected into tubes containing 10 µl mercaptoethanol and stored at -80° C. pending analysis. Isoflurane anesthesia was terminated, and pigs were recovered under veterinary surveillance to consciousness.
The samples were reconstituted in 100 µl 1:4 MeOH:DDW solution containing 0.01%^v/v formic acid and 0.1%^v/v mercaptoethanol and injected into LC-MS-MS system.
2.1.12 Chromatographic analysis of in-vivo samples: The chromatography was performed using a Shimadzu UHPLC System. The chromatographic separations were performed on a Kinetex™ (Phenomenex, CA, USA) column (EVO C18, 2.6 µm, 100 Å, 100 × 2.1 mm), protected by a SecurityGuard™ (Phenomenex, CA, USA) ULTRA cartridge (C18, 4 × 2 mm). The injection volume was 5 µl, temperature was 40° C.
Following this analysis PK parameters were obtained.

[2] = In-vivo oral mucosal administration of CBD and TPH in mucoadhesive shell to pigs
From the text: 4.1.6 In-vivo experiment protocol: Domestic female pigs (sus scrofa domesticus) of 35 - 40 kg body weight were obtained from Lahav ltd. […] After arrival to the unit for experimental surgery at Hadassah Ein-Kerem medical center (Jerusalem, Israel) they were allowed to acclimate during a period of a week with free access to food and water, and were under veterinary surveillance. Pigs were fasted overnight before the experiments. On the morning of the experiment pigs were anesthetized by xylazine 1 mg/kg, midazolam 0.04 mg/kg, ketamine 5 mg/kg and propofol 4 mg/kg. They were positioned on their back. Endotracheal tube was inserted, and pigs were respired with oxygen. […] Catheter was inserted into the ear vein through which physiological saline was administered. Pigs received amoxicillin 15 mg/kg antibiotic and tolfenamic acid 2 mg/kg analgesic. An intra-jugular catheter was inserted for blood sampling. Pigs were constantly monitored for their respiration rate, rectal temperature, O2 saturation, heart rate and blood pressure. Cardiovascular parameters were obtained by blood pressure monitor with porcine adapted front leg cuff. […] A mucoadhesive “shell” was adhered to it and pressed with finger for 1 min, to ensure full adhesion. […] Visual inspection approved that the mucoadhesive “shell” was fully adhered to the mucosa and there were no leakages. […] Plasma was separated and stored at -80° C. pending analysis. At 8 hours mucoadhesive “shell” was removed, the mucosa was carefully cleaned with a gauze, so that no CBD and TPH will remain on its surface. At 12 hours pigs were euthanized by injection of overdose of KCl.
The samples were reconstituted in 100 µl 1:4 MeOH:DDW solution containing 0.01%^v/v formic acid and injected into LC-MS-MS.
4.1.9 Chromatographic analysis of CBD from in-vivo study: The chromatography was performed using a Thermo Scientific (San Jose, CA, USA) UHPLC System, which includes Dionex Pump with degasser module and an Accela Autosampler. […]

[3] = Monitored vital parameters after CBD and TPH administration to the mucosa of pigs; assay type: in vivo, pig; conditions: median (lowest - highest)
From the text: Israel. […] Pigs were fasted overnight before the experiments. […] They were positioned on their back.

[4] = cited from earlier work
[5] = cited from earlier work; remark: listed apart in the source
[6] = Ex-vivo permeability of APO, MTP and ATN in Ussing diffusion chamber; assay type: in vitro ADME, pig; conditions: for Papp at 0.1 mM: n=3
From the text: Each chamber includes a heating block for temperature control and needle valves for adjustment of carbogen gas flow for oxygenation and gas lift stirring. Buccal tissues of female pigs, ~100 kg, were used in the experiments. Pigs were exposed to anesthetic agents, antibiotics, contrast agents and sacrificed by over exposure to KC1. […] Immediately following euthanasia, buccal tissue was removed and placed in ice-cold modified Ringer’s buffer (pH 7.4). Buccal mucosa segments were trimmed to 800-1000 µm by surgical scissors and tweezers and mounted into Ussing diffusion chambers. The exposed tissue surface area was 0.5 cm^2 and buffered solutions volume in each cell was 3 ml. The system was preheated to 35° C. Modified Ringer buffer was added to the receiver compartment and simulated saliva buffer to the donor side. The tissue oxygenation and the solution mixing were performed by bubbling with carbogen gas. The system was equilibrated for 30 min followed by replacing the solutions and adding 20 µl of the test solutions to the donor side of the chamber to commence the experiment.
Solutions were freshly prepared on the days of the experiments. […] When testing the effect of organic solvents, 100 µl of the simulated saliva in the donor chamber were replaced by 100 µl of 1:1EtOH:PG solution. When testing the effect of NLF 70 µl of the simulated saliva in the donor chamber were replaced by 70 µl of NLF. […] The constituents are melted at 37° C. and mixed until a clear yellow homogenous solution is obtained.
3.1.3 Experimental protocol: 100 µl samples were taken from receiver compartment at the beginning of the experiments, at half an hour and every hour until the end of the experiments. 100 µl of fresh Ringer’s buffer solution were added each time to receiver compartment. The dilution of the concentration of tested substances in the receiver compartment was accounted for. […] All samples were stored at -20° C. pending analysis.
The analysis conditions were as follows: XTerra MS (Waters Inc.) C18 Column (3.5 µm, 2.1 mm × 100 mm), temperature 45° C., flow rate 0.2 ml/min and mobile phase with a linear gradient as detailed in Table 23.
Statistical significance was stated for p<0.05. […] Papp calculation and simulations of steady state plasma levels for in-vivo testing
Apparent permeability (Papp) is calculated by Eq. 5: […]

in vitro = conditions: female, pig, pH 7.4
From the text: Each chamber includes a heating block for temperature control and needle valves for adjustment of carbogen gas flow for oxygenation and gas lift stirring. Buccal tissues of female pigs, ~100 kg, were used in the experiments. […] Pigs were exposed to anesthetic agents, antibiotics, contrast agents and sacrificed by over exposure to KCl. […] Immediately following euthanasia, buccal tissue was removed and placed in ice-cold modified Ringer’s buffer (pH 7.4). Buccal mucosa segments were trimmed to 800-1000 µm by surgical scissors and tweezers and mounted into Ussing diffusional chambers. The exposed tissue surface area was 0.5 cm^2 and buffered solutions volume in each cell was 3 ml. The system was preheated to 35 (±1)°C. Modified Ringer’s buffer containing 4% bovine serum albumin was added to the receiver side and simulated saliva buffer to the donor side. The tissue oxygenation and the solution mixing were performed by bubbling with carbogen gas. The system was equilibrated for 30 min followed by replacing the solutions and adding 20 µl of the test solutions to the donor side of the chamber to commence the experiment.
4.1.12 Equations utilized: Apparent permeability (Papp) is calculated by Eq. 8: […]

[7] = in vivo
[8] = Insulin release from mucoadhesive tablets in physiologic media; assay type: physicochemical
Experimental: Peptides or proteins stabilized or encapsulated into nanoparticles, microparticles or liposomes were mixed in CP and HPC as described above and compressed into tablets. In a typical example, insulin zinc salt powder at 1% of the solids was added to the tablet composition and compressed into tablets. Insulin was released for 10 h from the tablets when placed in physiologic media. PLGA microspheres loaded with 50% insulin prepared by precipitation of concentrated alcoholic-dichloromethane solution into an anti-solvent, heptane. Particles at 10% of the non-active agents were added to the tablet powder and compressed into tablets. Anti-inflammatory protein such as Adiponectin, antimicrobial and antiviral proteins are also considered for buccal delivery.

With CN1CCc2cccc3c2C1CC1=C3C(=O)C(=O)C=C1 (centres unmarked) [APO-quinone] the half-lives of metabolites [1] was 25.5 (±2.0) min.
With C=C(C)[C@@H]1CCC(C)=C[C@H]1c1c(O)cc(CCCCC)cc1O [CBD, cannabidiol] the Css ([2]; ~0.42 mg/kg CBD, 30.0 mg/ml, 8 h exposure) was “not reached”, the “Diastolic blood press (mmHg)” value ([3]; CBD with TPH) was 37 (29 - 46) mmHg and the “Heart rate (beats/min)” value ([3]; CBD with TPH) was 98 (79 - 123) beats/min. The “O2 satur (%)” value ([3]; CBD with TPH) was 99 (90 - 100) %, the “Respiration rate (min^-1)” value ([3]; CBD with TPH) was 10 (10-13) min^-1 and the “Systolic blood press (mmHg)” value ([3]; CBD with TPH) was 77 (68 - 87) mmHg. For the same compound, the “Rectal temp (°C)” value ([3]; CBD ~0.42 mg/kg with TPH ~0.11 mg/kg, three pigs) was 37.4 (36.8 - 38.8) °C, the aqueous solubility [4] was ~ 12 µg/ml and ~ 0.04 mM and the “log P” value [4] was ~ 6. For the same compound, the “steady state volume of distribution” value ([5]; humans, IV administration) was 30 L/kg.
For COCCc1ccc(OCC(O)CNC(C)C)cc1 (centres unmarked) [MTP, metoprolol], the “Papp lower at pH 5.9 than at pH 7.4” value [6] was 2 fold, the Papp ([6]; female, pig, pH 7.4 with 3.33% v/v of 1:1 ethanol: propylene glycol solution, read-out: Apparent permeability (Papp)) was 7.24 ×10⁻⁶ cm/s and the Papp at 0.1 mM ([6]; female, pig, simulated saliva pH 5.9, mean (±SD), read-out: Apparent permeability (Papp)) was 1.11 ×10⁻⁶ cm/s. It also gave a Papp at 0.1 mM ([6]; female, pig, simulated saliva pH 7.4, standard 0.1 mM, mean (±SD), read-out: Apparent permeability (Papp)) of 2.48 ×10⁻⁶ cm/s, a Papp at 6 h (in vitro) of 1.02 ×10⁻⁶ cm/s and a Papp at 6 h, 34 µg/ml (in vitro) of 9.89 ×10⁻⁶ cm/s.
In the case of Cn1c(=O)c2[nH]cnc2n(C)c1=O [TPH, theophylline], the “TPH plateau higher than the highest plasma level of CBD” value ([2]; considering the molar dose administered) is given as 300 fold, the “time to plateau of plasma levels (lag-time)” value ([2]; ~0.11 mg/kg TPH, 8.0 mg/ml, 1.58 cm^2, three pigs) is given as 5 h and the “log P” value [4] is given as ~ 0. The “CL slower than CBD” value [7] was ~ 50 fold and the CL ([5]; in vivo) was 0.283 to 0.67 mL/min/kg.
In the case of “Insulin: insulin zinc salt powder at 1% of the solids in CP and HPC tablets”, the “duration of insulin release” value [8] was 10 h.
